Assay results published in patent US9695155B2, “Herbicidal substituted pyrimidinyloxy benzene compounds” (E. I. DU PONT DE NEMOURS AND COMPANY, priority 2013, dated 2017).

Columns and labels:
Assay in all cases: Test F preemergence
Settings in all cases: 21 days, scale 0 to 100
buckwheat, wild = type: in vivo, Polygonum convolvulus
From the text: (§1) Seeds of plant species selected from bermudagrass (Cynodon dactylon), surinam grass (Brachiaria decumbens), large (Lg) crabgrass (Digitaria sanguinalis), crabgrass, naked (naked crabgrass, Digitaria nuda), foxtail, green (green foxtail, Setaria viridis), johnsongrass (Sorghum halepense), kochia (Kochia scoparia), morningglory (pitted morningglory, Ipomoea lacunosa), nutsedge, purple (purple nutsedge, Cyperus rotundus), ragweed (common ragweed, Ambrosia elatior), mustard, black (black mustard, Brassica nigra), guineagrass (Panicum maximum), dallisgrass (Paspalum dilatatum), barnyardgrass (Echinochloa crus-galli), sandbur (southern sandbur, Cenchrus echinatus), sowthistle (common sowthistle, Sonchus oleraceous), Italian ryegrass (Lolium multiflorum), signalgrass (broadleaf signalgrass, Brachiaria platyphylla), dayflower (Virginia (VA) dayflower, Commelina virginica), bluegrass (annual bluegrass, Poa annua), quackgrass (Elytrigia repens), mallow (common mallow, Malva sylvestris), buckwheat, wild (wild buckwheat, Polygonum convolvulus), leafy spurge (Euphorbia esula), chickweed (common chickweed, Stellaria media), wild poinsettia (Euphorbia heterophylla), and pigweed (Amaranthus retroflexus) were planted into a blend of loam soil and sand and treated preemergence with test chemicals formulated in a non-phytotoxic solvent mixture which included a surfactant.
(§2) Treated plants and controls were maintained in a greenhouse for 21 days, after which time all species were compared to controls and visually evaluated. Plant response ratings, summarized in Table F, are based on a scale of 0 to 100 where 0 is no effect and 100 is complete control. A dash (-) response means no test result.

dayflower = type: in vivo, Commelina virginica
From the text: as §1, §2

dallisgrass = type: in vivo, Paspalum dilatatum
From the text: as §1, §2

kochia = type: in vivo, Kochia scoparia
From the text: as §1, §2

[1] = test system: morningglory (pitted morningglory); type: in vivo, Ipomoea lacunosa
From the text: as §1, §2

signalgrass = type: in vivo, Brachiaria platyphylla
From the text: as §1, §2

ragweed = type: in vivo, Ambrosia elatior
From the text: as §1, §2

large (Lg) crabgrass = type: in vivo, Digitaria sanguinalis
From the text: as §1, §2

sandbur = type: in vivo, Cenchrus echinatus
From the text: as §1, §2

Italian ryegrass = type: in vivo, Lolium multiflorum
From the text: as §1, §2

nutsedge, purple = type: in vivo, Cyperus rotundus
From the text: as §1, §2

pigweed = type: in vivo, Amaranthus retroflexus
From the text: as §1, §2

crabgrass, naked = type: in vivo, Digitaria nuda
From the text: as §1, §2

johnsongrass = type: in vivo, Sorghum halepense
From the text: as §1, §2

quackgrass = type: in vivo, Elytrigia repens
From the text: as §1, §2

mustard, black = type: in vivo, Brassica nigra
From the text: as §1, §2

leafy spurge = type: in vivo, Euphorbia esula
From the text: as §1, §2

bermudagrass = type: in vivo, Cynodon dactylon
From the text: as §1, §2

barnyardgrass = type: in vivo, Echinochloa crus-galli
From the text: as §1, §2

wild poinsettia = type: in vivo, Euphorbia heterophylla
From the text: as §1, §2

Compound: N#Cc1cccc(Oc2ncc(Cl)cn2)c1-n1cc(C(F)(F)F)cn1 [Compound 58, 3-[(5-chloro-2-pyrimidinyl)oxy]-2-[4-(trifluoromethyl)-1H-pyrazol-1-yl]benzonitrile]
- Plant response rating, Buckwheat, Wild (buckwheat, wild; 16 g ai/ha): 90
- Plant response rating, Buckwheat, Wild (buckwheat, wild; 31 g ai/ha): 100
- Plant response rating, Buckwheat, Wild (buckwheat, wild; 62 g ai/ha): 100
- Plant response rating, Buckwheat, Wild (buckwheat, wild; 125 g ai/ha): 100
- Plant response rating, Buckwheat, Wild (buckwheat, wild; 250 g ai/ha): 100
- Plant response rating, Dayflower, VA (dayflower; 16 g ai/ha): 90
- Plant response rating, Dayflower, VA (dayflower; 31 g ai/ha): 95
- Plant response rating, Dayflower, VA (dayflower; 62 g ai/ha): 100
- Plant response rating, Dayflower, VA (dayflower; 125 g ai/ha): 100
- Plant response rating, Dayflower, VA (dayflower; 250 g ai/ha): 100
- Plant response rating, Dallisgrass (dallisgrass; 16 g ai/ha): 90
- Plant response rating, Dallisgrass (dallisgrass; 31 g ai/ha): 100
- Plant response rating, Dallisgrass (dallisgrass; 62 g ai/ha): 100
- Plant response rating, Dallisgrass (dallisgrass; 125 g ai/ha): 100
- Plant response rating, Dallisgrass (dallisgrass; 250 g ai/ha): 100
- Plant response rating, Kochia (kochia; 16 g ai/ha): 98
- Plant response rating, Kochia (kochia; 31 g ai/ha): 100
- Plant response rating, Kochia (kochia; 62 g ai/ha): 100
- Plant response rating, Kochia (kochia; 125 g ai/ha): 100
- Plant response rating, Kochia (kochia; 250 g ai/ha): 100
- Plant response rating, Morningglory ([1]; 16 g ai/ha): 100
- Plant response rating, Morningglory ([1]; 31 g ai/ha): 98
- Plant response rating, Morningglory ([1]; 62 g ai/ha): 100
- Plant response rating, Morningglory ([1]; 125 g ai/ha): 100
- Plant response rating, Morningglory ([1]; 250 g ai/ha): 100
- Plant response rating, Signalgrass (signalgrass; 16 g ai/ha): 95
- Plant response rating, Signalgrass (signalgrass; 31 g ai/ha): 100
- Plant response rating, Signalgrass (signalgrass; 62 g ai/ha): 100
- Plant response rating, Signalgrass (signalgrass; 125 g ai/ha): 100
- Plant response rating, Signalgrass (signalgrass; 250 g ai/ha): 100
- Plant response rating, Ragweed (ragweed; 16 g ai/ha): 60
- Plant response rating, Ragweed (ragweed; 31 g ai/ha): 65
- Plant response rating, Ragweed (ragweed; 62 g ai/ha): 70
- Plant response rating, Ragweed (ragweed; 125 g ai/ha): 75
- Plant response rating, Ragweed (ragweed; 250 g ai/ha): 95
- Plant response rating, Crabgrass, Large (large (Lg) crabgrass; 16 g ai/ha): 100
- Plant response rating, Crabgrass, Large (large (Lg) crabgrass; 31 g ai/ha): 100
- Plant response rating, Crabgrass, Large (large (Lg) crabgrass; 62 g ai/ha): 100
- Plant response rating, Crabgrass, Large (large (Lg) crabgrass; 125 g ai/ha): 100
- Plant response rating, Crabgrass, Large (large (Lg) crabgrass; 250 g ai/ha): 100
- Plant response rating, Sandbur (sandbur; 16 g ai/ha): 10
- Plant response rating, Sandbur (sandbur; 31 g ai/ha): 35
- Plant response rating, Sandbur (sandbur; 62 g ai/ha): 95
- Plant response rating, Sandbur (sandbur; 125 g ai/ha): 100
- Plant response rating, Sandbur (sandbur; 250 g ai/ha): 100
- Plant response rating, Ryegrass, Italian (Italian ryegrass; 16 g ai/ha): 35
- Plant response rating, Ryegrass, Italian (Italian ryegrass; 31 g ai/ha): 95
- Plant response rating, Ryegrass, Italian (Italian ryegrass; 62 g ai/ha): 98
- Plant response rating, Ryegrass, Italian (Italian ryegrass; 125 g ai/ha): 100
- Plant response rating, Ryegrass, Italian (Italian ryegrass; 250 g ai/ha): 100
- Plant response rating, Nutsedge, Purple (nutsedge, purple; 16 g ai/ha): 0
- Plant response rating, Nutsedge, Purple (nutsedge, purple; 31 g ai/ha): 60
- Plant response rating, Nutsedge, Purple (nutsedge, purple; 62 g ai/ha): 40
- Plant response rating, Nutsedge, Purple (nutsedge, purple; 125 g ai/ha): 70
- Plant response rating, Nutsedge, Purple (nutsedge, purple; 250 g ai/ha): 80
- Plant response rating, Pigweed (pigweed; 16 g ai/ha): 100
- Plant response rating, Pigweed (pigweed; 31 g ai/ha): 100
- Plant response rating, Pigweed (pigweed; 62 g ai/ha): 100
- Plant response rating, Pigweed (pigweed; 125 g ai/ha): 100
- Plant response rating, Pigweed (pigweed; 250 g ai/ha): 100
- Plant response rating, Crabgrass, Naked (crabgrass, naked; 16 g ai/ha): 100
- Plant response rating, Crabgrass, Naked (crabgrass, naked; 31 g ai/ha): 100
- Plant response rating, Crabgrass, Naked (crabgrass, naked; 62 g ai/ha): 100
- Plant response rating, Crabgrass, Naked (crabgrass, naked; 125 g ai/ha): 100
- Plant response rating, Crabgrass, Naked (crabgrass, naked; 250 g ai/ha): 100
- Plant response rating, Johnsongrass (johnsongrass; 16 g ai/ha): 65
- Plant response rating, Johnsongrass (johnsongrass; 31 g ai/ha): 98
- Plant response rating, Johnsongrass (johnsongrass; 62 g ai/ha): 100
- Plant response rating, Johnsongrass (johnsongrass; 125 g ai/ha): 100
- Plant response rating, Johnsongrass (johnsongrass; 250 g ai/ha): 100
- Plant response rating, Quackgrass (quackgrass; 16 g ai/ha): 50
- Plant response rating, Quackgrass (quackgrass; 31 g ai/ha): 70
- Plant response rating, Quackgrass (quackgrass; 62 g ai/ha): 98
- Plant response rating, Quackgrass (quackgrass; 125 g ai/ha): 100
- Plant response rating, Quackgrass (quackgrass; 250 g ai/ha): 100
- Plant response rating, Mustard, Black (mustard, black; 16 g ai/ha): 100
- Plant response rating, Mustard, Black (mustard, black; 31 g ai/ha): 100
- Plant response rating, Mustard, Black (mustard, black; 62 g ai/ha): 100
- Plant response rating, Mustard, Black (mustard, black; 125 g ai/ha): 100
- Plant response rating, Mustard, Black (mustard, black; 250 g ai/ha): 100
- Plant response rating, Leafy Spurge (leafy spurge; 16 g ai/ha): 100
- Plant response rating, Leafy Spurge (leafy spurge; 31 g ai/ha): 95
- Plant response rating, Leafy Spurge (leafy spurge; 62 g ai/ha): 100
- Plant response rating, Leafy Spurge (leafy spurge; 125 g ai/ha): 100
- Plant response rating, Leafy Spurge (leafy spurge; 250 g ai/ha): 100
- Plant response rating, Bermudagrass (bermudagrass; 16 g ai/ha): 95
- Plant response rating, Bermudagrass (bermudagrass; 31 g ai/ha): 100
- Plant response rating, Bermudagrass (bermudagrass; 62 g ai/ha): 100
- Plant response rating, Bermudagrass (bermudagrass; 125 g ai/ha): 100
- Plant response rating, Bermudagrass (bermudagrass; 250 g ai/ha): 100
- Plant response rating, Barnyardgrass (barnyardgrass; 16 g ai/ha): 70
- Plant response rating, Barnyardgrass (barnyardgrass; 31 g ai/ha): 100
- Plant response rating, Barnyardgrass (barnyardgrass; 62 g ai/ha): 100
- Plant response rating, Barnyardgrass (barnyardgrass; 125 g ai/ha): 100
- Plant response rating, Barnyardgrass (barnyardgrass; 250 g ai/ha): 100
- Plant response rating, Poinsettia, Wild (wild poinsettia; 16 g ai/ha): 25
- Plant response rating, Poinsettia, Wild (wild poinsettia; 31 g ai/ha): 65
- Plant response rating, Poinsettia, Wild (wild poinsettia; 62 g ai/ha): 100
- Plant response rating, Poinsettia, Wild (wild poinsettia; 125 g ai/ha): 100
- Plant response rating, Poinsettia, Wild (wild poinsettia; 250 g ai/ha): 100
